We go through 17 molecules from patent US20230312587A1, “PTERIDINONE COMPOUNDS AND USES THEREOF” (Vertex Pharmaceutical Incorporated, priority 2018, published 2023).

Like-named read-outs stand apart in the source and are kept apart here. Where only a bound is given, the exact number is not on record here.

Assay [1] has as its target HEK293 membranes over-expressing WFS-1 (Homo sapiens (Human), UniProt O76024). The assay is described as follows: Radioligand displacement assay (tritiated Compound 136 probe). It is filed as binding. The settings on record: displacement of tritiated Compound 136. Summed up: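 WFS-1-overexpressing HEK293 membranes were preincubated 10 min with compound, then tritiated probe was added for 90 min at room temperature. Bound probe was collected by filtration on PEI-pretreated GF/B filters, washed and scintillation-counted. IC50 came from a 3-parameter fit of bound probe vs compound concentration.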

The next assay concerns HepG2 parental. Put plainly: In vitro cell viability (CellTiter-Glo), HepG2 parental. It is filed as cell-based. To be noted: Homo sapiens, 96 hours. The procedure:
HEK293 cells containing empty pCLPCx vector (HEK293 empty), HEK293 cells stably over-expression WFS1 (HEK293 WFS1), HepG2, and HepG2 cells where WFS1 was depleted via CRISPR/Cas9 (HepG2 WFS1 KO) cells were plated into 96-well black plates (Corning, product #3904) in 100 microliters of complete DMEM cell culture media [DMEM (Life Technologies, product #11960-051) media supplemented with 10% FBS (Hyclone, catalog #SH30071.03), antimycotic/antibiotic (Life Technologies, product #15240-062), and Glutamax (Life Technologies, product #35050-061)] at 1,000 (HEK293) or 5,000 (HepG2) cells per well. Cells were allowed to attach and grow overnight, after which compounds are added at various concentrations. Cell viability was assessed 96 hrs after compound addition with CellTiter-Glo reagent (Promega, catalog #G7570) according to manufacturer's protocol and measurement on a Pherastar luminescence plate reader (BMG Labtech).
To determine the effect of WFS1 depletion on compound mediated inhibition of cell viability, parental HepG2 cells and HepG2 cells where WFS1 was deleted by CRISPR/Cas9 were exposed to increasing concentrations of either Compound 136 or Compound 253 for 96 hours after which time viability was determined using Cell Titer Glo reagent (Promega). […] The IC50s for the viability of both the HepG2 parental and WFS1 knockout cells are summarized in Table 47: A<0.5 μM; 0.5 μM≤<2.0 μM; 2.0 μM≤C<10.0 μM; D≥[…].
(In general: ATP-based viability assays read luminescence as a measure of living cells.)

Another assay has as its system Hek293 empty vector. The assay is described as follows: In vitro cell viability (CellTiter-Glo), Hek293 empty vector. In kind it is cell-based. The settings on record: Homo sapiens. The essentials: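 HEK293 cells stably transduced with empty pCLPCX retroviral vector (puromycin-selected), seeded 1,000 cells/well, treated next day with compounds at various concentrations. Viability read by CellTiter-Glo luminescence 96 hrs after compound addition; IC50 derived.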

Where [2] appears, read: HEK293, read-out: Hek293 empty vector viability.

Sequence of HEK293 membranes over-expressing WFS-1 (O76024 whole entry): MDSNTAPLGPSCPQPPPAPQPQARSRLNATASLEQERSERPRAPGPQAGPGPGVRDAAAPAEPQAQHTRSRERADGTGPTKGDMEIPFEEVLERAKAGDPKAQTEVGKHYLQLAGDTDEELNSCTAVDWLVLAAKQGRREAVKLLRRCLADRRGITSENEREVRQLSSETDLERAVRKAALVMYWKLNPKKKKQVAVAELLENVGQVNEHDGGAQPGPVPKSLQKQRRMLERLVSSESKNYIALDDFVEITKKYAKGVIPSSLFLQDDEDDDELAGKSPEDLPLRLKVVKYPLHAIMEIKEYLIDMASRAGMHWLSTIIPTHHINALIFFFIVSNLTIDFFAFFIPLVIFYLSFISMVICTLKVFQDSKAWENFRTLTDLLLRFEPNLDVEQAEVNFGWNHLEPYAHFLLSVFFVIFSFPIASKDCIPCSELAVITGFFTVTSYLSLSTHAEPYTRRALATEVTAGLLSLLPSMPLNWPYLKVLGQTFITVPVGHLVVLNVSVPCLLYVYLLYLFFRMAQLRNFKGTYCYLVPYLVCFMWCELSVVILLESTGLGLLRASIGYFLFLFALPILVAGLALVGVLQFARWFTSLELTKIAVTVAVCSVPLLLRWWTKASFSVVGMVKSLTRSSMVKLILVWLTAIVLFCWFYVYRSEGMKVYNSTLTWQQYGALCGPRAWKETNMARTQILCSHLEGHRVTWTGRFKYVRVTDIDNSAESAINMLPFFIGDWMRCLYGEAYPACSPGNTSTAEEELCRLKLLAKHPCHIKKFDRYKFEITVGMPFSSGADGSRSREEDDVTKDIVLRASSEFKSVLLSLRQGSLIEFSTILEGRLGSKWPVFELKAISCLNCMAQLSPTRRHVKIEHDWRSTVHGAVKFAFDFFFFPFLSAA

Take `Cc1nc(N[C@H]2C[C@@H](Oc3cc(F)c(F)c(F)c3)C2)nc2c1NC(=O)[C@H](C)N2C` [Compound 247, (7S)-4,7,8-trimethyl-2-((cis-3-(3,4,5-trifluorophenoxy)cyclobutyl)amino)-7,8-dihydropteridin-6(5H)-one]: the IC50 in assay [1] was 60 to 600 nM; with HepG2 parental (read-out: HepG2 viability) it was 2000 to 10000 nM; with Hek293 empty vector (setting [2]), not below 3000 nM.

Turning to `Cc1nc(N[C@H]2C[C@H](Oc3cc(F)c(F)c(F)c3)C2)nc2c1N(C)C(=O)[C@H](C)N2C` [Compound 253, (7S)-4,5,7,8-tetramethyl-2-((trans-3-(3,4,5-trifluorophenoxy)cyclobutyl)amino)-7,8-dihydropteridin-6(5H)-one], the IC50 in assay [1] was less than 60 nM; in the assay with HepG2 parental (read-out: HepG2 viability) it was 500 to 2000 nM; with HepG2 parental (cell viability, Cell Titer Glo, read-out: IC50) it was 640 nM; in the assay on HepG2 parental (cell viability, read-out: IC50 class) it was 500 to 2000 nM; in the assay with Hek293 empty vector (setting [2]) it was not below 3000 nM; in the assay on Hek293 empty vector (cell viability, Hek293 empty vector, read-out: IC50), 15000 nM. In addition, the IC50 in the assay on Hek293 empty vector (cell viability, Hek293 empty vector, read-out: IC50 class) was not below 3000 nM.

Regarding `Cc1nc(N[C@H]2C[C@@H](COc3cc(F)c(F)c(F)c3)C2)nc2c1NC(=O)[C@H](C)N2C` [Compound 257, (7S)-4,7,8-Trimethyl-2-((cis-3-((3,4,5-trifluorophenoxy)methyl)cyclobutyl)-amino)-7,8-dihydropteridin-6(5H)-one], the IC50 is 60 to 600 nM in assay [1], 2000 to 10000 nM with HepG2 parental (read-out: HepG2 viability) and not below 3000 nM with Hek293 empty vector (setting [2]).

Regarding `Cc1nc(N[C@H]2C[C@H](COc3cc(F)c(F)c(F)c3)C2)nc2c1NC(=O)[C@H](C)N2C` [Compound 258, (7S)-4,7,8-trimethyl-2-((trans-3-((3,4,5-trifluorophenoxy)methyl)-cyclobutyl)amino)-7,8-dihydropteridin-6(5H)-one], the IC50 was 60 to 600 nM in assay [1], 2000 to 10000 nM in the assay with HepG2 parental (read-out: HepG2 viability) and not below 3000 nM in the assay on Hek293 empty vector (setting [2]).

As for `Cc1nc(N[C@@H]2CC[C@@H](Oc3cc(F)c(F)c(F)c3)C2)nc2c1N(C)C(=O)[C@H](C)N2C` [Compound 272, (S)-4,5,7,8-tetramethyl-2-(((1R,3R)-3-(3,4,5-trifluorophenoxy)cyclopentyl)amino)-7,8-dihydropteridin-6(5H)-one], the IC50 in assay [1] is 60 to 600 nM; in the assay with HepG2 parental (read-out: HepG2 viability) it was less than 500 nM; with Hek293 empty vector (setting [2]), not below 3000 nM.

As to `Cc1nc(N[C@H]2C[C@@H](Sc3ccc(F)cc3)C2)nc2c1N(C)C(=O)[C@H](C)N2C` [Compound 305, (7S)-2-((cis-3-((4-fluorophenyl)thio)cyclobutyl)amino)-4,5,7,8-tetramethyl-7,8-dihydropteridin-6(5H)-one], the IC50 in assay [1] is 60 to 600 nM; with HepG2 parental (read-out: HepG2 viability), not below 10000 nM; in the assay on Hek293 empty vector (setting [2]) it was not below 3000 nM.

On to `Cc1nc(N[C@H]2C[C@H](Sc3ccc(F)cc3)C2)nc2c1N(C)C(=O)[C@H](C)N2C` [Compound 307, (7S)-2-((trans-3-((4-fluorophenyl)thio)cyclobutyl)amino)-4,5,7,8-tetramethyl-7,8-dihydropteridin-6(5H)-one], for which the figures for the IC50 (in assay [1]; with HepG2 parental (read-out: HepG2 viability); in the assay on Hek293 empty vector (setting [2])) were 60 to 600 nM, 2000 to 10000 nM and not below 3000 nM, respectively.

On to `Cc1nc(N[C@H]2C[C@H](Oc3ccnc(C(F)(F)F)c3)C2)nc2c1NC(=O)[C@H](C)N2C` [Compound 335, (7S)-4,7,8-trimethyl-2-((trans-3-((2-(trifluoromethyl)pyridin-4-yl)oxy)cyclobutyl)amino)-7,8-dihydropteridin-6(5H)-one], for which the IC50 in assay [1] is less than 60 nM; in the assay with HepG2 parental (read-out: HepG2 viability), 2000 to 10000 nM; in the assay on Hek293 empty vector (setting [2]), not below 3000 nM.

Consider `Cc1nc(N[C@H]2C[C@@H](COc3ccc(C(F)(F)F)cn3)C2)nc2c1NC(=O)[C@H](C)N2C` [Compound 356, (7S)-4,7,8-trimethyl-2-((cis-3-(((5-(trifluoromethyl)pyridin-2-yl)oxy)methyl)cyclobutyl)amino)-7,8-dihydropteridin-6(5H)-one], for which the IC50 in assay [1] was 600 to 3000 nM; in the assay with HepG2 parental (read-out: HepG2 viability), not below 10000 nM; in the assay on Hek293 empty vector (setting [2]), not below 3000 nM.

Turning to `Cc1nc(N[C@H]2C[C@H](Oc3ccc(F)nc3)C2)nc2c1NC(=O)[C@H](C)N2C` [Compound 357, (7S)-2-((trans-3-((6-fluoropyridin-3-yl)oxy)cyclobutyl)amino)-4,7,8-trimethyl-7,8-dihydropteridin-6(5H)-one], the IC50 in assay [1] is 60 to 600 nM; with HepG2 parental (read-out: HepG2 viability), 2000 to 10000 nM; in the assay with Hek293 empty vector (setting [2]) it was not below 3000 nM.

Regarding `Cc1nc(NCc2cnn(Cc3ccc(C(F)(F)F)nc3)c2)nc2c1NC(=O)[C@H](C(C)C)N2C` [Compound 383, (7S)-7-isopropyl-4,8-dimethyl-2-(((1-((6-(trifluoromethyl)pyridin-3-yl)methyl)-1H-pyrazol-4-yl)methyl)amino)-7,8-dihydropteridin-6(5H)-one], the results for the IC50 (in assay [1]; with HepG2 parental (read-out: HepG2 viability); with Hek293 empty vector (setting [2])) were less than 60 nM, less than 500 nM and not below 3000 nM, respectively.

For the molecule `Cc1nc(NCc2cnn(Cc3ccc(F)nc3)c2)nc2c1NC(=O)[C@H](C(C)C)N2C` [Compound 384, (7S)-2-(((1-((6-fluoropyridin-3-yl)methyl)-1H-pyrazol-4-yl)methyl)amino)-7-isopropyl-4,8-dimethyl-7,8-dihydropteridin-6(5H)-one], the IC50 was 60 to 600 nM in assay [1], less than 500 nM with HepG2 parental (read-out: HepG2 viability) and not below 3000 nM with Hek293 empty vector (setting [2]).

For `Cc1nc(NCc2cnn(Cc3ccc(C(F)(F)F)nc3)c2)nc2c1NC(=O)C1(CCC1)N2C` [Compound 398, 4′,8′-dimethyl-2′-(((1-((6-(trifluoromethyl)pyridin-3-yl)methyl)-1H-pyrazol-4-yl)methyl)amino)-5′,8′-dihydro-6′H-spiro[cyclobutane-1,7′-pteridin]-6′-one], the IC50 was 60 to 600 nM in assay [1], 500 to 2000 nM with HepG2 parental (read-out: HepG2 viability) and not below 3000 nM in the assay with Hek293 empty vector (setting [2]).

As for `Cc1nc(N(C)Cc2cnn(Cc3ccc(C(F)(F)F)nc3)c2)nc2c1NC(=O)[C@H](C)N2C` [Compound 403, (7S)-4,7,8-trimethyl-2-(methyl((1-((6-(trifluoromethyl)pyridin-3-yl)methyl)-1H-pyrazol-4-yl)methyl)amino)-7,8-dihydropteridin-6(5H)-one], the IC50 in assay [1] was not below 3000 nM; in the assay on HepG2 parental (read-out: HepG2 viability) it was not below 10000 nM; with Hek293 empty vector (setting [2]) it was not below 3000 nM.

For the molecule `CC(=O)N(Cc1cnn(Cc2ccc(C(F)(F)F)nc2)c1)c1nc(C)c2c(n1)N(C)[C@@H](C)C(=O)N2` [Compound 405, (7S)-N-((1-((6-(trifluoromethyl)pyridin-3-yl)methyl)-1H-pyrazol-4-yl)methyl)-N-(4,7,8-trimethyl-6-oxo-5,6,7,8-tetrahydropteridin-2-yl)acetamide], the results for the IC50 (in assay [1]; with HepG2 parental (read-out: HepG2 viability); with Hek293 empty vector (setting [2])) were not below 3000 nM, not below 10000 nM and not below 3000 nM, respectively.

Consider `Cc1nc(NCc2cnn(Cc3ccc(Cl)nc3)c2)nc2c1NC(=O)[C@H](C(C)C)N2C` [Compound 409, (7S)-2-(((1-((6-chloropyridin-3-yl)methyl)-1H-pyrazol-4-yl)methyl)amino)-7-isopropyl-4,8-dimethyl-7,8-dihydropteridin-6(5H)-one], for which the IC50 in assay [1] was less than 60 nM; in the assay with HepG2 parental (read-out: HepG2 viability) it was less than 500 nM; with Hek293 empty vector (setting [2]), not below 3000 nM.

As to `Cc1nc(NCc2cn(Cc3ccc(C(F)(F)F)nc3)nc2Br)nc2c1NC(=O)[C@H](C)N2C` [Compound 412, (S)-2-(((3-bromo-1-((6-(trifluoromethyl)pyridin-3-yl)methyl)-1H-pyrazol-4-yl)methyl)amino)-4,7,8-trimethyl-7,8-dihydropteridin-6(5H)-one], the IC50 in assay [1] is less than 60 nM; with HepG2 parental (read-out: HepG2 viability), 2000 to 10000 nM; in the assay on Hek293 empty vector (setting [2]) it was not below 3000 nM.
